Measurements from paper PMC12144822 (Parasites & Vectors, 2025).

What was measured:
Type in all cases: cell-based
[1] = molecular target: Hsa-GABA α3β2γ2 (Homo sapiens, UniProt P18507+P34903+P47870); test: Two-electrode voltage-clamp concentration-activation by the natural agonist, receptor expressed in Xenopus oocytes; design: The corresponding open reading frames (ORF) were cloned into the pT7-TS transcription vector; expressed in transfected cells; host or cells: Xenopus laevis oocytes, cRNA injection; details: concentration-activation curve
Description: (§1) Complementary DNA (cDNA) encoding for the human GABAA proteins α1 (NM_001127645.2), α2 (NM_001377146.1), α3 (KJ620007.1), α4 (NM_000809.4), α5 (NM_000810.4), α6 (NM_000811.3), β2 (XM_054352312.1), β3 (M82919.1), γ2 (NM_000816.3) and δ (NM_000815.5) were ordered from Genewiz (www.genewiz.com; Leipzig, Germany); for each gene, GenBank accession numbers are provided in parentheses. When necessary, silent mutations were introduced to break NheI or XhoI internal restriction sites. The corresponding open reading frames (ORF) were cloned into the pT7-TS transcription vector (introducing X. laevis β-globin untranslated cDNA to the 5’ and 3’ ends of the gene), following a procedure described in detail in a previous publication. The same process was used to obtain cDNA encoding canine GABAA proteins α4 (XM_025435560.1), α6 (XM_022417729.1) and δ (XM_005620414.2). Gene α2 (XM_025435664.1), α3 (XM_549343.5), α5 (XM_545805.6) and β3 (XM_025437408.1) were obtained by PCR; GenBank reference accession numbers are provided in parentheses. RNA extraction, cDNA synthesis and PCR amplification were performed as described previously. Total RNA was extracted from a piece of dog brain (Beagle breed; Canis lupus familiaris) from which 1 µg of total RNA (DNase-treated) was reverse-transcribed to cDNA using a (dT)30 primer and SuperScript III Reverse Transcriptase (Invitrogen, Thermo Fisher Scientific, Waltham, MA, USA). Gene-specific primers (Additional file 1: Table S1) were designed using Primer 3 software (http://frodo.wi.mit.edu/). […] The cycling conditions were: 98 °C for 30 s; then 38 cycles of 98 °C for 10 s, 58 °C for 30 s and 72 °C for 90 s; followed by 72 °C for 5 min. The dog subunits α1 (XM_546261.5), β2 (XM_014113040.1) and γ2 (XM_546259.5) had been previously amplified and described in a study by Rufener et al..
(§2) Defoliculated X. laevis oocytes ordered from Ecocyte Bioscience (Dortmund, Germany) were microinjected with 15–25 nl of cRNA solution (5–50 ng/μl) per oocyte using an automated injector (Roboinject; Multi Channel Systems MCS GmbH, Reutlingen, Germany) and then incubated at 18 °C. All recordings were made 1–5 days post-cRNA injection and were performed at 18 ± 4 °C. Cells were superfused with OR2 medium (NaCl 88 mM, KCl 2.5 mM, HEPES 5 mM, CaCl2•2H2O 1.8 mM, MgCl2•7H2O 1.0 mM, pH 7.4). To ensure that γ2 subunits were integrated into the heteropentamers, we injected fivefold more γ2 than the other subunit cRNAs. Diazepam is a positive allosteric modulator of GABAR only if γ2 subunits are present. Therefore, we used this method to confirm the presence of human and dog GABAA receptor containing the γ2 subunit.
(§3) Voltage-clamp measurements were performed as described by Rufener et al.. Oocytes were impaled with two electrodes filled with 3 M KCl, and their membrane potentials were maintained at − 80 mV throughout the experiment. […] Recordings were performed using an automated process equipped with standard two-electrode voltage-clamp configuration (HiClamp system; Multi Channel Systems MCS GmbH). Data were filtered at 10 Hz, captured at 100 Hz and analyzed using proprietary data acquisition and analysis software in MATLAB (Mathworks Inc., Natick, MA, USA). Additional analyses were performed using Excel (Microsoft, Redmond, WA, USA). […] Graphing the maximum inward currents against the log of agonist concentration produces typical concentration-activation and concentration-inhibition curves, which can be accurately described using individual Hill equations.

[2] = molecular target: Hsa-GABA α5β2γ2 (Homo sapiens, UniProt P18507+P31644+P47870); test: as above; design: The corresponding open reading frames (ORF) were cloned into the pT7-TS transcription vector; expressed in transfected cells; host or cells: Xenopus laevis oocytes, cRNA injection; details: concentration-activation curve
Description: as §1, §2, §3

[3] = system: Hsa-GABAR; test: Voltage-clamp concentration-activation, summary over the six human receptors; details: concentration-activation curves
Description: as §2
Voltage-clamp measurements were performed as described by Rufener et al.. Oocytes were impaled with two electrodes filled with 3 M KCl, and their membrane potentials were maintained at − 80 mV throughout the experiment. […] Recordings were performed using an automated process equipped with standard two-electrode voltage-clamp configuration (HiClamp system; Multi Channel Systems MCS GmbH). Data were filtered at 10 Hz, captured at 100 Hz and analyzed using proprietary data acquisition and analysis software in MATLAB (Mathworks Inc., Natick, MA, USA). […]

Hsa-GABA α5β2γ2, sequence (P31644 32-462): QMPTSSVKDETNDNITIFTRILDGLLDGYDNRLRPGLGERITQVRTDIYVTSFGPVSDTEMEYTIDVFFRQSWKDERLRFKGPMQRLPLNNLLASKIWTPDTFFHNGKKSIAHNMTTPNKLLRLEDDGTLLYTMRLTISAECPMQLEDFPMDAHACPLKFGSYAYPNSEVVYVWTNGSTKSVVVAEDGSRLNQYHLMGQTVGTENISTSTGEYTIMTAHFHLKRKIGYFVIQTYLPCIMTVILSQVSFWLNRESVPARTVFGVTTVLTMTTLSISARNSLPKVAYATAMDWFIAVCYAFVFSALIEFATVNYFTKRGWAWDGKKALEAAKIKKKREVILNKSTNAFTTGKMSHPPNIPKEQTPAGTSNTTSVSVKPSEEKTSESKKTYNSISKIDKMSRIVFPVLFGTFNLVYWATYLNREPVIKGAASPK
Hsa-GABA α5β2γ2, sequence (P47870 26-474 isoform P47870-1 limits assumed): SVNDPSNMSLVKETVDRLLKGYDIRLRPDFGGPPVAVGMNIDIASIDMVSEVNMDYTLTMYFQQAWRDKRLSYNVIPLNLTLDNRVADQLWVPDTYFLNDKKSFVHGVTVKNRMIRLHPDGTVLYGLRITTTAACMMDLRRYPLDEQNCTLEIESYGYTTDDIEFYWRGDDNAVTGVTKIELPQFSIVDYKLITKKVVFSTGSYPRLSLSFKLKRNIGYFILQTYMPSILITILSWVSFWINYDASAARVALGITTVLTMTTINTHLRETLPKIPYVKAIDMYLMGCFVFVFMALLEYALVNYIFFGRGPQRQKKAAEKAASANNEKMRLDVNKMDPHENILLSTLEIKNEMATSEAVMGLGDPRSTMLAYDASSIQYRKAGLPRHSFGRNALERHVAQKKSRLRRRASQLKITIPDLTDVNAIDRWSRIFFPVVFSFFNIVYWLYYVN
Hsa-GABA α5β2γ2, sequence (P18507 40-467 isoform P18507-1 limits assumed): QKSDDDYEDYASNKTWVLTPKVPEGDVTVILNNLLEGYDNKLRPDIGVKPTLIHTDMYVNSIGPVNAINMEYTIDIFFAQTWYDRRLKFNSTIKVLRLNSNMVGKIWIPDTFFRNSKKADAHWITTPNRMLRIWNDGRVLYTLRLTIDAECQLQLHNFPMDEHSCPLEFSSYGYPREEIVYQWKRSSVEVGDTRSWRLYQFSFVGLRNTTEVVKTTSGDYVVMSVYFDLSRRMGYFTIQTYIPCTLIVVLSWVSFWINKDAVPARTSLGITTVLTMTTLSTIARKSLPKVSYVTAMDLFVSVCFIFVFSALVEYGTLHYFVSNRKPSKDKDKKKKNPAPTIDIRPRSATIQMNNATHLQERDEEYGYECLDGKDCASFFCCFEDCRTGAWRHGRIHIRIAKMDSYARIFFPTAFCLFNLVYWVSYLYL
Hsa-GABA α3β2γ2, sequence (P34903 29-492): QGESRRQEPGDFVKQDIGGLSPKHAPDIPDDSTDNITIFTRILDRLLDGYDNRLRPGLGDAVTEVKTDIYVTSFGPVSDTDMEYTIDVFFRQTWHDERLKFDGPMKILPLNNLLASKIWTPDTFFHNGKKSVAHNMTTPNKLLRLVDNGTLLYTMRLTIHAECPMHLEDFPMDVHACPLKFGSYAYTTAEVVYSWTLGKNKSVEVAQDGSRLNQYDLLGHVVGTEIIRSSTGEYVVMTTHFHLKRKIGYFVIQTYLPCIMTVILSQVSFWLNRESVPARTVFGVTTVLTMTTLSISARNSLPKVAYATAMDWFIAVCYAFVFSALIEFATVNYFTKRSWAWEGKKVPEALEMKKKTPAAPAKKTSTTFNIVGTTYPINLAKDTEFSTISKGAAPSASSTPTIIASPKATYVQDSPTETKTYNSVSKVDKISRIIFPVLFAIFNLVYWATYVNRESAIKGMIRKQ
Hsa-GABA α3β2γ2, sequence (P47870 26-474 isoform P47870-1 limits assumed): as the sequence (P47870 26-474 isoform P47870-1 limits assumed) above
Hsa-GABA α3β2γ2, sequence (P18507 40-467 isoform P18507-1 limits assumed): as the sequence (P18507 40-467 isoform P18507-1 limits assumed) above

SMILES: NCCCC(=O)O [GABA, gamma-aminobutyric acid]
- nH (Hill coefficient) [1]: 1.2
- nH (Hill coefficient) [2]: 1.1
- Hill coefficients over the six Hsa-GABAR [3]: higher than 1
